One experiment deals with T1, α4β3δ GABAA receptors (Homo sapiens, UniProt O14764+P28472+P48169).
T1 construct: expressed in transfected cells; host or cells: CHO cells, transiently transfected (Lipofectamine)
The experiment can be described thus: Whole-cell patch clamp: potentiation of GABA EC20 currents at recombinant α4β3δ GABAA receptors. It counts as cell-based. As to the method:
(§1) Cellular electrophysiology was used to measure the pharmacological properties of ALLO, ganaxolone and SGE-516 in heterologous cell systems. Compounds were tested for their ability to affect GABA mediated currents at a submaximal agonist dose (GABA EC20=2 μM).
(§2) LTK cells were stably transfected with the α1β2γ2 subunits of the GABA receptor and CHO cells are transiently transfected with the α4β3γ subunits via the Lipofecatamine method. Cells were passaged at a confluence of about 50-80% and then seeded onto 35 mm sterile culture dishes containing 2 ml culture complete medium without antibiotics or antimycotics. Cells were cultivated at a density that enabled the recording of single cells without visible connections to other cells.
(§3) Whole-cell currents were measured with HEKA EPC-10 amplifiers using PatchMaster software. Bath solution for all experiments contained (in mM): NaCl 137, KCl 4, CaCl2 1.8, MgCl2 1, HEPES 10, D-Glucose 10, pH 7.4 with NaOH. Intracellular (pipette) solution contained (in mM): KCl 130, MgCl2 1, Mg-ATP 5, HEPES 10, EGTA 5, pH 7.2 with KOH. During experiments, cells and solutions were maintained at room temperature (19° C.-30° C.). For manual patchclamp recordings, cell culture dishes were placed on the dish holder of the microscope and continuously perfused (1 ml/min) with bath solution. After formation of a Gigaohm seal between the patch electrode and the cell (pipette resistance range: 2.5 MΩ-6.0MΩ; seal resistance range: >1 GΩ) the cell membrane across the pipette tip was ruptured to assure electrical access to the cell interior (whole-cell patch configuration).
(§4) Cells were voltage-clamped at a holding potential of −80 mV. GABAA receptors were activated by 2 μM GABA and compounds were sequentially applied at increasing concentrations for 30 s prior to a 2 s application of GABA. GABA and compounds were applied to cells via the Dynaflow perfusion system (Cellectricon, Sweden). Test compounds were dissolved in DMSO to form 10 mM stock solution and serially diluted to 0.01, 0.1, 1, and 10 μM in bath solution. There was no effect on GABA currents when DMSO was applied to cells at its maximal concentration in solution (0.1%). All concentrations of test compound were tested on each cell. The relative percentage potentiation was defined as the peak amplitude in response to GABA EC20 in the presence of test compound divided by the peak amplitude in response to GABA EC20 alone, multiplied by 100.
ALLO and ganaxolone are known PAMs of both synaptic and extrasynaptic GABAAR-mediated currents. The ability of candidate compound SGE-516 to act as a PAM was compared to ALLO and ganaxolone using the whole-cell recordings of recombinant human GABAA receptors expressed in mammalian cells. The α1β2γ2 or α4β3δ subunit combinations were chosen as representatives of typical synaptic and extrasynaptic GABAA receptors respectively. Similar to previous reports (Botella et al., 2015), ALLO, ganaxolone and SGE-516 allosterically potentiated currents induced by EC20 concentration of GABA in a concentration-dependent manner in both synaptic- and extrasynaptic-type GABAARs.
Background: In patch-clamp work, channel activity is measured electrically.

Another experiment concerns the target T2, α1β2γ2 GABAA receptors (Homo sapiens, UniProt P14867+P18507+P47870).
T2 construct: expressed in transfected cells; host or cells: LTK cells, stably transfected
The experiment can be described thus: Whole-cell patch clamp: potentiation of GABA EC20 currents at recombinant α1β2γ2 GABAA receptors. It is filed as cell-based. As to the method:
as §1, §2, §3
as §4, with “There was no effect on GABA currents when DMSO was applied to cells at its maximal concentration in solution (0.1%).” left out
ALLO and ganaxolone are known PAMs of both synaptic and extrasynaptic GABAAR-mediated currents. […] The α1β2γ2 or α4β3δ subunit combinations were chosen as representatives of typical synaptic and extrasynaptic GABAA receptors respectively.

[1] abbreviates: potentiation of current at GABA EC20 (2 μM), n = 3.

Where two headings read alike, the source gives them in different places.

Results on three compounds are retold here after US20230116196A1, “METHOD OF TREATING CNS DISORDERS WITH NEU[…] GABAERGIC COMPOUNDS” (priority 2017, published 2023).

T1 sequence (P48169 36-554): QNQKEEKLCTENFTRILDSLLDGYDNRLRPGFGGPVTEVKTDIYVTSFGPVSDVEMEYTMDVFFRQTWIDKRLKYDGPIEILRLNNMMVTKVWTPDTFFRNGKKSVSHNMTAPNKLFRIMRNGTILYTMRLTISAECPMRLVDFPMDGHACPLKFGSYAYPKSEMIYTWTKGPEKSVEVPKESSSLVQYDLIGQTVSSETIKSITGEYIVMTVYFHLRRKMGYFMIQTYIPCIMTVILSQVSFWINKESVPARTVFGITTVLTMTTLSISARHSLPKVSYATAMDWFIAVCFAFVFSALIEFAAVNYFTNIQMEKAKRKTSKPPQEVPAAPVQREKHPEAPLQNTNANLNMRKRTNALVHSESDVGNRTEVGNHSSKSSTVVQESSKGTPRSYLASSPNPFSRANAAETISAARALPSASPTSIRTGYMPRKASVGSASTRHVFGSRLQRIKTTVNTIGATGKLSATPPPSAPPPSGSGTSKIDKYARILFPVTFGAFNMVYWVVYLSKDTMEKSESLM
T1 sequence (P28472 26-473): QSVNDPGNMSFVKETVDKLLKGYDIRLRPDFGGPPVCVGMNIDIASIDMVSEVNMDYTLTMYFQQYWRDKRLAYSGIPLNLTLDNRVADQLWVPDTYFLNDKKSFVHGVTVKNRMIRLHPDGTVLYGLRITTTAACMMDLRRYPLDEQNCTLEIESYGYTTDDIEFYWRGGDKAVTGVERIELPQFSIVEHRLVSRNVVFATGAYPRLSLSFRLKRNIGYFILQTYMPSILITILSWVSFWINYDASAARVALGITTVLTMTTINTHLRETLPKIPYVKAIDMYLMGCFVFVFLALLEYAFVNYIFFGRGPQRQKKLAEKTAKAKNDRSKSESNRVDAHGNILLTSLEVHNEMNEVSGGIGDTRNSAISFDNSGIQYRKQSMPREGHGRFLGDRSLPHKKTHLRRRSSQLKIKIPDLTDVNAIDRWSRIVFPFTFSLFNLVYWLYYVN
T1 sequence (O14764 25-452): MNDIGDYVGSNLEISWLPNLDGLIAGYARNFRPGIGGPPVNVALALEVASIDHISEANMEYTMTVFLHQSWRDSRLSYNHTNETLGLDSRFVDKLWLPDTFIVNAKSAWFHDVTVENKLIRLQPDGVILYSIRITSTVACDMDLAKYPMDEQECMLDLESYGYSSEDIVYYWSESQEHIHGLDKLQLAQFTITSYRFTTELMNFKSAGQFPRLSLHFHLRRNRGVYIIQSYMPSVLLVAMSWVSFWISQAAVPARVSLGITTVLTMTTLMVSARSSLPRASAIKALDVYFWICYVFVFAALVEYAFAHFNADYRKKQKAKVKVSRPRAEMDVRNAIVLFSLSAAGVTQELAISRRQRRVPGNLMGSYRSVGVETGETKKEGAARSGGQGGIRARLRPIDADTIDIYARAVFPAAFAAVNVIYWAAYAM
T2 sequence (P14867 28-456): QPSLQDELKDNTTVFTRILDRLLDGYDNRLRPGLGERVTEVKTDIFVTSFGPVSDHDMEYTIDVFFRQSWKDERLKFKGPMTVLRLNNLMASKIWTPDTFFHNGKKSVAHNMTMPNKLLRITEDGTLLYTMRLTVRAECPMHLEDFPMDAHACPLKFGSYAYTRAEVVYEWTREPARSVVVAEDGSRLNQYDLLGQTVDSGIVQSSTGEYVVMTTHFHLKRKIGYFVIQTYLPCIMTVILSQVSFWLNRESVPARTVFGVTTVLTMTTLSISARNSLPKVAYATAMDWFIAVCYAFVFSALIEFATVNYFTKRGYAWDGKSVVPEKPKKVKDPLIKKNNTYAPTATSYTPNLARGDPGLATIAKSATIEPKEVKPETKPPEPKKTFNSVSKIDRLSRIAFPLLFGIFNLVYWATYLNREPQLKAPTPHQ
T2 sequence (P47870 25-512 limits assumed): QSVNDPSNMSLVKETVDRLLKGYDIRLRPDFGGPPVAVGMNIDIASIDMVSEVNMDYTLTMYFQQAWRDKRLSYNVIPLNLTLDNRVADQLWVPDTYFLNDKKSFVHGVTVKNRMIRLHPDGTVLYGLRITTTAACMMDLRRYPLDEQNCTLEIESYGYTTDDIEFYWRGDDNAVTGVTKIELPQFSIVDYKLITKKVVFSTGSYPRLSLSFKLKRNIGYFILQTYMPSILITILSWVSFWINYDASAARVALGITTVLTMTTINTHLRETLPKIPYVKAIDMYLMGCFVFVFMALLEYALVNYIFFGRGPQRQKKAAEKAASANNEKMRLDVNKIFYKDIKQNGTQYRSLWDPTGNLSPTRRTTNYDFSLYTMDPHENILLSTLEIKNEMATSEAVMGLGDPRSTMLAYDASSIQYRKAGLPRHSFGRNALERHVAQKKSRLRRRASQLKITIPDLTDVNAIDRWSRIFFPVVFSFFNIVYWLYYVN
T2 sequence (P18507 40-475): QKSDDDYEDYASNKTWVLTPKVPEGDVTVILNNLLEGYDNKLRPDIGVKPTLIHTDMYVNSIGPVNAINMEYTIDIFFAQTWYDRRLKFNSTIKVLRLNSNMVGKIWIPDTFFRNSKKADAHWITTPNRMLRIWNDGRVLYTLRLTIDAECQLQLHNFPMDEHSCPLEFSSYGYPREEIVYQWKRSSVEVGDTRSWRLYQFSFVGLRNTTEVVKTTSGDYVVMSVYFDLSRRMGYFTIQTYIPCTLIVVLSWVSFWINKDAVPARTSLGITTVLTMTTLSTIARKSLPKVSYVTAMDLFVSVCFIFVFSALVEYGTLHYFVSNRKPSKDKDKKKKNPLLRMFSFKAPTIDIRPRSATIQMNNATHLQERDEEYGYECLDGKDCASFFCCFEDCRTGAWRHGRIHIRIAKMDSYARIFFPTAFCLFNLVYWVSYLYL

For the compound `CC(=O)[C@H]1CC[C@H]2[C@@H]3CC[C@H]4C[C@H](O)CC[C@]4(C)[C@H]3CC[C@]12C` [ALLO, Allopregnanolone], at α4β3δ GABAA receptors (setting [1]), the “pEC50 ± S.E.M., α4β3δ” value came out at 7.2 ± 0.3. In addition, the “pEC50 ± S.E.M., α1β2γ2” value at α1β2γ2 GABAA receptors (setting [1]) was 6.9 ± 0.2.

For `CC(=O)[C@H]1CC[C@H]2[C@@H]3CC[C@H]4C[C@](C)(O)CC[C@]4(C)[C@H]3CC[C@]12C` [Ganaxolone], at α4β3δ GABAA receptors (setting [1]), the “pEC50 ± S.E.M., α4β3δ” value was found to be 7.0 ± 0.1. Also, the EC50 – broadly, the concentration needed to bring the measured effect to its halfway point – on α1β2γ2 GABAA receptors was 251 nM.

For `C[C@@]1(O)CC[C@@]2(C)[C@H](CC[C@@H]3[C@@H]2CC[C@]2(C)[C@@H](C(=O)Cn4nccn4)CC[C@@H]32)C1` [SGE-516], the EC50 at α4β3δ GABAA receptors (setting [1]) turned out to be 193 nM; at α1β2γ2 GABAA receptors (potentiation of current at GABA EC20 (2 μM), n = 3, read-out: EC50, α1β2γ2), 61 nM. The “Emax ± S.E.M., α4β3δ” value on α4β3δ GABAA receptors (relative percentage potentiation of GABA EC20 current) came out at 505 ± 19%. Besides, at α1β2γ2 GABAA receptors (relative percentage potentiation of GABA EC20 current, read-out: Emax ± S.E.M., α1β2γ2), the Emax (usually the greatest response seen or fitted, relative to the assay's reference) stood at 219%.
